Measured values as given in article PMC5896373 (Molecular Pharmacology, 2018).
Positions count from the first letter of the chain named. pIC50: −log10 of the molar value.

Assays:
[1] = biological target: T1, P2X7R point mutant Y295A (Homo sapiens, UniProt Q99572, I21V/M24R/N16P/N25R/Q22R/R20V/S23N/T19I/Y26L/Y295A); test: Two-electrode voltage clamp of ATP-evoked currents in Xenopus oocytes; assay type: cell-based; conditions: EC90 ATP, mean ± S.E.M.
T1 construct: expressed in transfected cells; host or cells: Xenopus laevis oocytes (cRNA injection)
Procedure: (§1) Additional point mutants were made using the QuikChange mutagenesis kit (Stratagene California, La Jolla, CA). The production of the correct mutations and absence of coding errors was determined by DNA sequencing (Automated ABI Sequencing Service, University of Leicester, UK). cRNA was generated for the mutants and 50 nl (50 ng) was injected into manually defoliculated stage V Xenopus laevis oocytes using an Inject+Matic microinjector (J.A. Gabay, Inject+Matic, Geneva, Switzerland). Injected oocytes were stored at 16°C in ND96 buffer [in millimolar concentrations, NaCl 96, KCl 2, CaCl2 1.8, MgCl2 1, sodium pyruvate 5, and HEPES 5 (pH 7.6) supplemented with 50 μg/ml gentamycin and 50 μg/ml tetracycline]. Three to seven days postinjection two-electrode voltage clamp recordings were made from oocytes bathed in divalent-free ND96 buffer (in millimolar concentrations, NaCl 96, KCl 2, sodium pyruvate 5, HEPES 5, and 0.1 flufenamic acid, pH 7.6). Oocytes were voltage clamped at a holding potential of −60 mV with a GeneClamp500B amplifier (Molecular Devices).
(§2) Inhibition by the antagonists was expressed as the percentage of the peak current amplitude of an EC90 concentration of ATP recorded before the application of antagonist (ATP gave reproducible responses to ATP in the absence of antagonist). […]

[2] = biological target: T2, chimeric P2X7/1 receptor 170–177 (Homo sapiens, UniProt Q99572, A172V/A176I/E174D/E175D/I170V/I21V/M24R/N16P/N25R/Q22R/R20V/S23N/T19I/V173D/Y26L); test: as above; assay type: cell-based
T2 construct: expressed in transfected cells; host or cells: Xenopus laevis oocytes (cRNA injection)
T2 sequence (Q99572 1-595 N16P/T19I/R20V/I21V/Q22R/S23N/M24R/N25R/Y26L/I170V/A172V/V173D/E174D/E175D/A176I): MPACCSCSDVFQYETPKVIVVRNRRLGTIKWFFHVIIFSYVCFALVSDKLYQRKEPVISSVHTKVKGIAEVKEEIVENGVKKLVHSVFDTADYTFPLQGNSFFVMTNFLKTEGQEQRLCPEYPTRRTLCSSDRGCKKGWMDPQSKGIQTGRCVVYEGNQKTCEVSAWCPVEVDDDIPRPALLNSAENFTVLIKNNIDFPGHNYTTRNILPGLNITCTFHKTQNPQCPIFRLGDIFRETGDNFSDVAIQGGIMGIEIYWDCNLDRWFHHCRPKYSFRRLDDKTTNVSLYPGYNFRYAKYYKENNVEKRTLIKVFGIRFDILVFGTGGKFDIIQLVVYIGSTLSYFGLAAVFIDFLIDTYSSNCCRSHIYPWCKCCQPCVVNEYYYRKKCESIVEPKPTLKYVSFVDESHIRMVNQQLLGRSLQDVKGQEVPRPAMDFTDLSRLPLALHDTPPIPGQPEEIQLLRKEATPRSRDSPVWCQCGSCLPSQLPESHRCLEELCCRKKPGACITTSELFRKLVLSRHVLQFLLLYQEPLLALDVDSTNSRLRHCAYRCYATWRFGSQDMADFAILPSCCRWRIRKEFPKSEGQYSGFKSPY
Procedure: as §1
(§3) Inhibition by the antagonists was expressed as the percentage of the peak current amplitude of an EC90 concentration of ATP recorded before the application of antagonist (ATP gave reproducible responses to ATP in the absence of antagonist). Inhibition curves were fitted with the Hill equation (variable slope) using GraphPad Prism 6 (GraphPad Software, San Diego, CA). […] Individual concentration-response curves were generated for individual experiments, and statistical analysis was carried out on the data generated. […] Data are shown as mean ± S.E.M. In all cases n ≥ 3 for all data points.

[3] = biological target: T3, chimeric P2X7/1 receptor 89–94 (Homo sapiens, UniProt Q99572, I21V/M24R/N16P/N25R/Q22R/R20V/S23N/T19I/T90V/T94V/Y26L); test: as above; assay type: cell-based; conditions: for pIC50: inhibition of EC90 ATP response
T3 construct: expressed in transfected cells; host or cells: Xenopus laevis oocytes (cRNA injection)
T3 sequence (Q99572 1-595 N16P/T19I/R20V/I21V/Q22R/S23N/M24R/N25R/Y26L/T90V/T94V): T2 sequence (Q99572 1-595 N16P/T19I/R20V/I21V/Q22R/S23N/M24R/N25R/Y26L/I170V/A172V/V173D/E174D/E175D/A176I) with T90V, T94V, V170I, V172A, D173V, D174E, D175E, I176A
Procedure: (§4) The production of the correct mutations and absence of coding errors was determined by DNA sequencing (Automated ABI Sequencing Service, University of Leicester, UK). cRNA was generated for the mutants and 50 nl (50 ng) was injected into manually defoliculated stage V Xenopus laevis oocytes using an Inject+Matic microinjector (J.A. Gabay, Inject+Matic, Geneva, Switzerland). Injected oocytes were stored at 16°C in ND96 buffer [in millimolar concentrations, NaCl 96, KCl 2, CaCl2 1.8, MgCl2 1, sodium pyruvate 5, and HEPES 5 (pH 7.6) supplemented with 50 μg/ml gentamycin and 50 μg/ml tetracycline]. Three to seven days postinjection two-electrode voltage clamp recordings were made from oocytes bathed in divalent-free ND96 buffer (in millimolar concentrations, NaCl 96, KCl 2, sodium pyruvate 5, HEPES 5, and 0.1 flufenamic acid, pH 7.6). Oocytes were voltage clamped at a holding potential of −60 mV with a GeneClamp500B amplifier (Molecular Devices).
as §3

[4] = biological target: T4, P2X7R point mutant Y93A (Homo sapiens, UniProt Q99572, I21V/M24R/N16P/N25R/Q22R/R20V/S23N/T19I/Y26L/Y93A); test: as above; assay type: cell-based; conditions: EC90 ATP, mean ± S.E.M.
T4 construct: expressed in transfected cells; host or cells: Xenopus laevis oocytes (cRNA injection)
Procedure: (§5) Injected oocytes were stored at 16°C in ND96 buffer [in millimolar concentrations, NaCl 96, KCl 2, CaCl2 1.8, MgCl2 1, sodium pyruvate 5, and HEPES 5 (pH 7.6) supplemented with 50 μg/ml gentamycin and 50 μg/ml tetracycline]. Three to seven days postinjection two-electrode voltage clamp recordings were made from oocytes bathed in divalent-free ND96 buffer (in millimolar concentrations, NaCl 96, KCl 2, sodium pyruvate 5, HEPES 5, and 0.1 flufenamic acid, pH 7.6). Oocytes were voltage clamped at a holding potential of −60 mV with a GeneClamp500B amplifier (Molecular Devices).
as §3

[5] = biological target: T5, chimeric P2X7R with left flipper 280–284 of P2X4 (Homo sapiens, UniProt Q99572, D280T/I21V/K281R/M24R/N16P/N25R/N284E/Q22R/R20V/S23N/T19I/T282D/T283V/Y26L); test: cell-based
T5 sequence (Q99572 1-595 N16P/T19I/R20V/I21V/Q22R/S23N/M24R/N25R/Y26L/D280T/K281R/T282D/T283V/N284E): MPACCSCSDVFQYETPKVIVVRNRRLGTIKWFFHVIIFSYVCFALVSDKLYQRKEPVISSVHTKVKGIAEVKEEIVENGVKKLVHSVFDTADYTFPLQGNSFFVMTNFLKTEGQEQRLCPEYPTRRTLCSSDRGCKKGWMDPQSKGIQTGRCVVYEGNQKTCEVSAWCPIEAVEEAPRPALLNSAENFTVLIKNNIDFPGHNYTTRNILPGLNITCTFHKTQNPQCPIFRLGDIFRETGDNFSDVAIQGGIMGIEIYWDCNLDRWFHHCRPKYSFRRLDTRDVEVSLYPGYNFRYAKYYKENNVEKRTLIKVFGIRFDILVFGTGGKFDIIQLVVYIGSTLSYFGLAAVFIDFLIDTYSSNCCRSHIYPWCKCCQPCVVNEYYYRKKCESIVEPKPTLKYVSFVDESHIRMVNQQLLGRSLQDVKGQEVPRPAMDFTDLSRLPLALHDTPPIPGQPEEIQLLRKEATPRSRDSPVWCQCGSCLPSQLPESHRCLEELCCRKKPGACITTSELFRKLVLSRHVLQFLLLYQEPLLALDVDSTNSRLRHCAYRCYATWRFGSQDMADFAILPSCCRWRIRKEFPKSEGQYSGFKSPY
Procedure: as §4, §3

[6] = biological target: T6, P2X7R point mutant Y298A (Homo sapiens, UniProt Q99572, I21V/M24R/N16P/N25R/Q22R/R20V/S23N/T19I/Y26L/Y298A); test: cell-based
T6 construct: expressed in transfected cells; host or cells: Xenopus laevis oocytes (cRNA injection)
Procedure: as §5
Inhibition by the antagonists was expressed as the percentage of the peak current amplitude of an EC90 concentration of ATP recorded before the application of antagonist (ATP gave reproducible responses to ATP in the absence of antagonist). Inhibition curves were fitted with the Hill equation (variable slope) using GraphPad Prism 6 (GraphPad Software, San Diego, CA). […] Individual concentration-response curves were generated for individual experiments, and statistical analysis was carried out on the data generated. When shown in figures, the inhibition curves are fitted to the mean normalized data. […] Data are shown as mean ± S.E.M. In all cases n ≥ 3 for all data points.

[7] = biological target: T7, P2X7R point mutant K297G (Homo sapiens, UniProt Q99572, I21V/K297G/M24R/N16P/N25R/Q22R/R20V/S23N/T19I/Y26L); test: Two-electrode voltage clamp of ATP-evoked currents in Xenopus oocytes; assay type: cell-based; conditions: EC90 ATP, mean ± S.E.M.
T7 construct: expressed in transfected cells; host or cells: Xenopus laevis oocytes (cRNA injection)
Procedure: as §1, §2

[8] = biological target: T8, P2X7R point mutant I310A (Homo sapiens, UniProt Q99572, I21V/I310A/M24R/N16P/N25R/Q22R/R20V/S23N/T19I/Y26L); test: as above; assay type: cell-based; conditions: EC90 ATP, mean ± S.E.M.
T8 construct: expressed in transfected cells; host or cells: Xenopus laevis oocytes (cRNA injection)
Procedure: as §5, §3

[9] = biological target: T9, P2X7R point mutant F88A (Homo sapiens, UniProt Q99572, F88A/I21V/M24R/N16P/N25R/Q22R/R20V/S23N/T19I/Y26L); test: as above; assay type: cell-based; conditions: EC90 ATP, mean ± S.E.M.
T9 construct: expressed in transfected cells; host or cells: Xenopus laevis oocytes (cRNA injection)
T9 sequence (Q99572 whole entry N16P/T19I/R20V/I21V/Q22R/S23N/M24R/N25R/Y26L/F88A): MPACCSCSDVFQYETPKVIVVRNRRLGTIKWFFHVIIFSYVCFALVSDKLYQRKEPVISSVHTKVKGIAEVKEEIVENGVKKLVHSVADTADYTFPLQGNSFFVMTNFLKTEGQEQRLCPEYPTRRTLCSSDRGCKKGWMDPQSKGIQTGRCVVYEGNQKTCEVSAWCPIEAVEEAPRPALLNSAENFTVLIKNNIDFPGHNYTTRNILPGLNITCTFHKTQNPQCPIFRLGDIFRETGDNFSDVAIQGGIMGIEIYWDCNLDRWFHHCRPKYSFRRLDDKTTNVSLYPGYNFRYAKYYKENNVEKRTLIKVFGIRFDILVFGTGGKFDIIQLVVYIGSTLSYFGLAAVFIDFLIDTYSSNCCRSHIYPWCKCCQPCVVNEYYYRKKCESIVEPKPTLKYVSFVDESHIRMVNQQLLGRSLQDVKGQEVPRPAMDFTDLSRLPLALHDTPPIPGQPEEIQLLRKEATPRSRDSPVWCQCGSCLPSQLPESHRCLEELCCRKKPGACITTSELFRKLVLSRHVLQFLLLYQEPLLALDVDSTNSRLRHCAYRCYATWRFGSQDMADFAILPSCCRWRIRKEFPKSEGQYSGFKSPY
Procedure: as §1, §2

T8 sequence (Q99572 whole entry N16P/T19I/R20V/I21V/Q22R/S23N/M24R/N25R/Y26L/I310A): as the sequence (Q99572 whole entry N16P/T19I/R20V/I21V/Q22R/S23N/M24R/N25R/Y26L/F88A) above, with A88F, I310A counted along it
T6 sequence (Q99572 whole entry N16P/T19I/R20V/I21V/Q22R/S23N/M24R/N25R/Y26L/Y298A): as the sequence (Q99572 whole entry N16P/T19I/R20V/I21V/Q22R/S23N/M24R/N25R/Y26L/F88A) above, with A88F, Y298A counted along it
T1 sequence (Q99572 whole entry N16P/T19I/R20V/I21V/Q22R/S23N/M24R/N25R/Y26L/Y295A): as the sequence (Q99572 whole entry N16P/T19I/R20V/I21V/Q22R/S23N/M24R/N25R/Y26L/F88A) above, with A88F, Y295A counted along it
T7 sequence (Q99572 whole entry N16P/T19I/R20V/I21V/Q22R/S23N/M24R/N25R/Y26L/K297G): as the sequence (Q99572 whole entry N16P/T19I/R20V/I21V/Q22R/S23N/M24R/N25R/Y26L/F88A) above, with A88F, K297G counted along it
T4 sequence (Q99572 whole entry N16P/T19I/R20V/I21V/Q22R/S23N/M24R/N25R/Y26L/Y93A): as the sequence (Q99572 whole entry N16P/T19I/R20V/I21V/Q22R/S23N/M24R/N25R/Y26L/F88A) above, with A88F, Y93A counted along it

**Q.** How did the pIC50 [1] turn out when `Cl.Clc1cccc(-c2nnnn2Cc2cccnc2)c1Cl.O` [A438079, 3-(5-(2,3-dichlorophenyl)-1H-tetrazol-1-yl)methyl pyridine hydrochloride hydrate] was run?
**A.** 5.70

**Q.** And the pIC50 [2]?
**A.** 6.20

**Q.** What about the inhibition at 10 µM ([3]; P2X7, read-out: inhibition of ATP responses) of the same compound?
**A.** 15.7%

**Q.** What about the pIC50 ([3]; chimera 89–94) of the same compound?
**A.** < 4.00

**Q.** And the pIC50 [4]?
**A.** 5.40

**Q.** What about the pIC50 [5] of the same compound?
**A.** 4.50

**Q.** What about the pIC50 [6] of the same compound?
**A.** 5.20

**Q.** What about the pIC50 [7] of the same compound?
**A.** 7.30

**Q.** And the pIC50 [8]?
**A.** 5.20

**Q.** What about the pIC50 [9] of the same compound?
**A.** < 4.00

**Q.** `COc1ccc(CC(=O)NC(N=C(NC#N)Nc2cccc3ncccc23)C(C)(C)C)cc1OC` (stereo not drawn) [A740003, N-[1-[[(cyanoamino)(5-quinolinylamino)methylene]amino]-2,2-dimethylpropyl]-3,4-dimethoxybenzeneacetamide] was tested. Which pIC50 [1] did it give?
**A.** 6.80

**Q.** And the pIC50 [2]?
**A.** 7.20

**Q.** And the “effect on antagonist potency relative to P2X7-2Nβ” value ([2]; chimera 170–177)?
**A.** no effect

**Q.** What about the “fold decrease in antagonist sensitivity/affinity relative to P2X7-2Nβ” value ([3]; chimera 89–94) of the same compound?
**A.** ~3 fold

**Q.** And the pIC50 ([3]; chimera 89–94)?
**A.** 6.60

**Q.** What about the pIC50 [4] of the same compound?
**A.** 7.00

**Q.** What about the pIC50 [5] of the same compound?
**A.** 6.10

**Q.** And the pIC50 [6]?
**A.** 5.70

**Q.** What about the pIC50 [7] of the same compound?
**A.** 7.90

**Q.** What about the pIC50 [8] of the same compound?
**A.** 6.90

**Q.** And the pIC50 [9]?
**A.** 5.30
